The text below walks through data of patent publication US7091218B1 (priority 1999, dated 2006).

SMILES strings stand for the structures. Structures can show the parent of a compound that is named as a salt.

For one series, the target named is T1, acetylcholinesterase (Rattus norvegicus, UniProt P37136).
T1 construct: Using rat brain homogenate as a source of acetylcholinesterase; from tissue; host or cells: rat brain homogenate
T1 sequence (P37136 32-614): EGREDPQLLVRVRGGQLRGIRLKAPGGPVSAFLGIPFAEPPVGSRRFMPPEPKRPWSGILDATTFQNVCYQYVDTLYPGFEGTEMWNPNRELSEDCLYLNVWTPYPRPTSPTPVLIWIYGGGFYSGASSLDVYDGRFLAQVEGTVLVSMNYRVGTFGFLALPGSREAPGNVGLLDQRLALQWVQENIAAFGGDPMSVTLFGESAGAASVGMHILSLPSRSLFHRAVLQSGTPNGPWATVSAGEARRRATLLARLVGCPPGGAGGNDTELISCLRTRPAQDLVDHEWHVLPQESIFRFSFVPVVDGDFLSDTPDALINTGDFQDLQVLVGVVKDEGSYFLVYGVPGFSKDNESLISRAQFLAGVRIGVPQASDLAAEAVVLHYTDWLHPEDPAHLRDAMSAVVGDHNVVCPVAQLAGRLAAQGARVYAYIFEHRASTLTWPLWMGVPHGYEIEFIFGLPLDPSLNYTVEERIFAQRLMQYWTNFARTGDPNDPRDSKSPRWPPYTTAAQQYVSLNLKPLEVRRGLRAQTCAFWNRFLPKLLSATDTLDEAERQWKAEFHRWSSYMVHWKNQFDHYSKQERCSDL
The series is described as follows: biochemical. The conditions noted are these: rat brain homogenate as enzyme source; acetylthiocholine substrate, DTNB, absorbance at 412 nm. On the procedure:
In Vitro Acetylcholinsterase Inhibitory Effect
Using rat brain homogenate as a source of acetylcholinesterase, esterase activity was assayed in accordance with the method of Ellman et al. ^1). That is, acetylthiocholin as a substrate, a test compound and DTNB (5,5′-dithiobis(2-nitrobenzoic acid)) were added to […] brain homogenate, and after incubation, the produced thiocholine was reacted with DTNB to produce a yellow product. This was measured as a change in absorbance at 412 nm to obtain acetylcholineesterase activity. The acetylcholineesterase inhibiting activity of each test compound was obtained as 50% inhibition concentration (IC50). Note that the test compounds were used after dissolving them in physiological saline. Ellman, G. L., Courtney, K. D., Andres, V. and Featherstone, R. M., (1961), Biochem. Pharmacol., 7, 88–95.

As for `COc1cc2c(cc1OC)C(=O)C(Cl)(CC1CCN(Cc3ccccc3)CC1)C2` (stereo not drawn) [Example 1, 1-Benzyl-4-[(5,6-dimethoxy-2-chloro-1-indanon)-2-yl]methylpiperidine hydrochloride], half-maximal inhibition on acetylcholinesterase (IC50) required 2 nM. This lies in the single-digit nanomolar range.
In turn, `CCOc1cc2c(cc1OCC)C(=O)C(Cl)(CC1CCN(Cc3ccccc3)CC1)C2` (stereo not drawn) [Example 6, hydrochloride] gave an IC50 against acetylcholinesterase of 2 nM.
`COc1cc2c(cc1OC)C(=O)C(CC1CCN(Cc3ccccc3)CC1)(N=[N+]=[N-])C2.Cl` (stereo not drawn) had a melting point of 153 to 154 °C.

For orientation: IC50 means the concentration needed to halve the response being measured. A high value points to weaker potency in that assay. Usually melting point stands for the temperature, or range, at which the solid turns liquid.
